Laboratory results reported in US20250282736A1, “SMALL MOLECULE MODULATORS OF HUMAN PREGNANE X RECEPTOR” (ST. JUDE CHILDREN'S RESEARCH HOSPITAL, priority 2022, published 2025).

Legend:
hPXR [1] = target: T1, hPXR (Homo sapiens (Human), UniProt O75469); assay: hPXR binding assay; details: for inhibition at 10 µM: read-out: Binding (% inhibition at 10 μM)
hPXR [2] = target: T1, hPXR; assay: cell-based hPXR agonistic assay; details: for Agonist (% activation at 10 μM): rifampicin at 10 μM as 100% activation, DMSO (0.3%) as 0%
hPXR [3] = target: T1, hPXR; assay: cell-based hPXR antagonistic assay; details: for inhibition at 10 µM: read-out: Antagonist (% inhibition at 10 μM)
hPXR [4] = target: T1, hPXR; assay: cell-based hPXR inverse agonistic assay; details: for inhibition at 10 µM: read-out: Inverse agonist (% inhibition at 10 μM)
[5] = read-out: Binding (IC50/μM), hPXR binding assay

T1 sequence (O75469 whole entry): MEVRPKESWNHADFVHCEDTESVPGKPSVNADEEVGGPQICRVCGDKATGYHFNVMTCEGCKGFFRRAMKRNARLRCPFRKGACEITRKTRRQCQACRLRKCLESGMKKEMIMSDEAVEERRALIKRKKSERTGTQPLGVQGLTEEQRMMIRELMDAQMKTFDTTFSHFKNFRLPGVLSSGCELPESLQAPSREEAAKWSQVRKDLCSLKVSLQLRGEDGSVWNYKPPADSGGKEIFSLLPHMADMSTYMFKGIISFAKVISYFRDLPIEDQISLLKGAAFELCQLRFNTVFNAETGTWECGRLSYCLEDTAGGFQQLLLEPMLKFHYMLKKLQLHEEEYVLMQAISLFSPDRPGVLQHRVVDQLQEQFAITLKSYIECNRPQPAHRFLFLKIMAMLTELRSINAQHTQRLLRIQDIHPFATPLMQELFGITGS

SMILES	inhibition at 10 µM (hPXR [1])	IC50 (hPXR [1]; [5])	EC50 (hPXR [2])	IC50 (hPXR [3])	inhibition at 10 µM (hPXR [3])	IC50 (hPXR [4])	inhibition at 10 µM (hPXR [4])	IC50 (hPXR [1])	Agonist (% activation at 10 μM) (hPXR [2])
COc1ccc(OC)c(-n2nnc(C(=O)Nc3cc(OCC(=O)O)cc(C(C)(C)C)c3)c2C)c1 [D32]			> 30000 nM	> 30000 nM		> 30000 nM		> 30 µM	
COc1ccc(OC)c(-n2nnc(C(=O)Nc3cc(OCCOCCOCCOCCN)cc(C(C)(C)C)c3)c2C)c1 [D35]			> 30000 nM	19700 ± 7630 nM	84%	> 30000 nM		> 30 µM	
COc1ccc(-n2nnc(C(=O)Nc3ccccc3)c2C)cc1 [E4]			> 30000 nM	> 30000 nM		> 30000 nM		> 30 µM	
COc1ccc(-n2nnc(C(=O)Nc3cccc(C)c3)c2C)cc1 [E8]			> 30000 nM	> 30000 nM		> 30000 nM		> 30 µM	
CCCCOc1ccc(C(C)(C)C)cc1NC(=O)c1nnn(-c2ccc(OC)cc2)c1C [E9]			> 30000 nM	> 30000 nM		> 30000 nM		> 30 µM	
COc1ccc(-n2nnc(C(=O)Nc3cc(C)ccc3OC)c2C)cc1 [E10]	53%	1.2 ± 0.3 µM	> 30000 nM	> 30000 nM		> 30000 nM			
COc1ccc(Cl)cc1-n1nnc(C(=O)Nc2cc(C(C)(C)C)cc(C(C)(C)C)c2)c1C [F1]	67%	0.044 ± 0.016 µM	> 30000 nM	240 nM	102%	66 ± 14 nM	93%		
COc1ccc(Cl)cc1-n1nnc(C(=O)Nc2cc(N)cc(C(C)(C)C)c2)c1C [F2, N-(3-amino-5-(tert-butyl)phenyl)-1-(5-chloro-2-methoxyphenyl)-5-methyl-1H-1,2,3-triazole-4-carboxamide]	65%	7.68 ± 1.45 µM	> 30000 nM	18200 ± 11100 nM	56%	3620 ± 1740 nM	101%		
CCCCNc1cc(NC(=O)c2nnn(-c3cc(Cl)ccc3OC)c2C)cc(C(C)(C)C)c1 [F3]	83%	0.12 µM	> 30000 nM	210 nM	104%	62 nM	89%		
COc1ccc(Cl)cc1-n1nnc(C(=O)Nc2cc(O)cc(C(C)(C)C)c2)c1C [F4]	84%	1.64 µM	> 30000 nM	1180 ± 210 nM	104%	290 ± 180 nM	101%		
COc1cc(NC(=O)c2nnn(-c3cc(Cl)ccc3OC)c2C)cc(C(C)(C)C)c1 [F5]	40%	0.14 µM	> 30000 nM	480 ± 140 nM	103%	180 nM	80%		
CCCCOc1cc(NC(=O)c2nnn(-c3cc(Cl)ccc3OC)c2C)cc(C(C)(C)C)c1 [F6]	61%	0.042 ± 0.011 µM	> 30000 nM	670 ± 160 nM	94%	220 nM	65%		
CCC(C)Oc1ccc(C(C)(C)C)cc1NC(=O)c1nnn(-c2cc(Cl)ccc2OC)c1C (centres unmarked) [F10]	90%	0.0076 ± 0.0011 µM	360 ± 160 nM	19 nM	79%	> 30000 nM			(9 ± 1)%

Next, values leading:

inhibition at 10 µM (hPXR [1])	IC50 (hPXR [1]; [5])	EC50 (hPXR [2])	IC50 (hPXR [3])	inhibition at 10 µM (hPXR [3])	IC50 (hPXR [4])	inhibition at 10 µM (hPXR [4])	IC50 (hPXR [1])	Agonist (% activation at 10 μM) (hPXR [2])	SMILES
59%	1.09 ± 0.31 µM	> 30000 nM	2700 nM	82%	330 nM	92%			COc1ccc(OC)c(-n2nnc(C(=O)Nc3cc(OCCCCCCCCI)cc(C(C)(C)C)c3)c2C)c1 [D21, N-(3-(tert-butyl)-5-((8-iodooctyl)oxy)phenyl)-1-(2,5-dimethoxyphenyl)-5-methyl-1H-1,2,3-triazole-4-carboxamide]
58%	0.57 µM	> 30000 nM	2690 ± 930 nM	46%	1070 ± 430 nM	53%			COc1ccc(OC)c(-n2nnc(C(=O)Nc3cc(OCCCCCCCCCl)cc(C(C)(C)C)c3)c2C)c1 [D24]
77%	1.13 ± 0.36 µM	> 30000 nM	1280 ± 280 nM	189%	240 nM	111%			COc1ccc(OC)c(-n2nnc(C(=O)Nc3cc(OCCCCCCCC=O)cc(C(C)(C)C)c3)c2C)c1 [D26]
70%	1 ± 0.08 µM	> 30000 nM	2140 ± 360 nM	92%	1140 ± 580 nM	91%			COCCOCCOCCOCCOc1cc(NC(=O)c2nnn(-c3cc(OC)ccc3OC)c2C)cc(C(C)(C)C)c1 [D27]
25%	0.31 ± 0.17 µM	> 30000 nM	1090 ± 300 nM	107%	310 nM	105%			COC(=O)CCCOc1cc(NC(=O)c2nnn(-c3cc(OC)ccc3OC)c2C)cc(C(C)(C)C)c1 [D29]
71%	1.71 ± 0.33 µM	> 30000 nM	920 ± 120 nM	104%	190 nM	118%			COc1ccc(OC)c(-n2nnc(C(=O)Nc3cc(OCCCC(=O)O)cc(C(C)(C)C)c3)c2C)c1 [D30]
73%	0.16 µM	> 30000 nM	430 nM	105%	100 nM	126%			COc1ccc(OC)c(-n2nnc(C(=O)Nc3cc(OCC(=O)OC(C)(C)C)cc(C(C)(C)C)c3)c2C)c1 [D31, tert-butyl 2-(3-(tert-butyl)-5-(1-(2,5-dimethoxyphenyl)-5-methyl-1H-1,2,3-triazole-4-carboxamido)phenoxy)acetate]
		320 ± 100 nM	> 30000 nM		> 30000 nM		> 30 µM	(30 ± 7)%	COc1ccc(-n2nnc(C(=O)Nc3cccc(N4CCCC4)c3)c2C)cc1 [E1, 1-(4-methoxyphenyl)-5-methyl-N-(3-(pyrrolidin-1-yl)phenyl)-1H-1,2,3-triazole-4-carboxamide]
54%	6.94 ± 0.2 µM	5160 ± 1100 nM	> 30000 nM		> 30000 nM			(24 ± 2)%	COc1ccc(-n2nnc(C(=O)Nc3ccc(NC(C)=O)c(C(C)(C)C)c3)c2C)cc1 [E2, N-(4-acetamido-3-(tert-butyl)phenyl)-1-(4-methoxyphenyl)-5-methyl-1H-1,2,3-triazole-4-carboxamide]
		860 ± 120 nM	> 30000 nM		> 30000 nM		> 30 µM	(29 ± 4)%	COc1ccc(-n2nnc(C(=O)Nc3ccc(N)c(C(C)(C)C)c3)c2C)cc1 [E3, N-(4-amino-3-(tert-butyl)phenyl)-1-(4-methoxyphenyl)-5-methyl-1H-1,2,3-triazole-4-carboxamide]
		4050 ± 1520 nM	> 30000 nM		> 30000 nM		> 30 µM	(41 ± 3)%	COc1ccc(-n2nnc(C(=O)Nc3cccc(C(C)(C)C)c3)c2C)cc1 [E5]
		1440 ± 270 nM	> 30000 nM		> 30000 nM		> 30 µM	(35 ± 3)%	COc1ccc(-n2nnc(C(=O)Nc3ccc(C(C)(C)C)cc3)c2C)cc1 [E6]
		790 ± 260 nM	> 30000 nM		> 30000 nM		> 30 µM	(29 ± 5)%	COc1ccc(-n2nnc(C(=O)Nc3ccc(C)cc3)c2C)cc1 [E7]
